“And” between values parts separate entries of the source, which are not always exact repeats. Identical values can stand only once. Like-named read-outs stand apart in the source and are kept apart here.
Tests used:
[1] = tested on: Trypanosoma brucei rhodesiense (bloodstream trypomastigotes, STIB 900 strain); experiment: In vitro anti-trypanosomal activity against Tbr; type: cell-based
Protocol: (§1) In vitro tests for biological activity of the crude extracts, fractions, sub-fractions and isolated compounds against Trypanosoma brucei rhodesiense (bloodstream trypomastigotes, STIB 900 strain), Trypanosoma cruzi (amastigotes, Tulahuen C4 strain), Leishmania donovani (amastigotes, MHOM-ET-67/L82 strain), Plasmodium falciparum (intraerythrocytic form, NF54 strain) and cytotoxicity test against mammalian L6 cell line from rat skeletal myoblasts were performed according to the established standard protocol. However, only the activity data against Trypanosoma brucei rhodesiense is reported due to the inactivity of the tested substances against other parasites at the concentration tested.

[2] = Cytotoxicity against L6 cells; type: cell-based, rat; details: rat
Protocol: as §1

[3] = tested on: L6 rat skeletal myoblasts; experiment: Cytotoxicity against L6 cells; type: cell-based
Protocol: as §1

[4] = Trypanosoma brucei, isolated compounds, average of two determinations ± absolute deviation, read-out: Tbr (STIB900) IC50 (µg/mL)
[5] = isolated compounds, average of two determinations ± absolute deviation, read-out: Tbr (STIB900) IC50
[6] = Trypanosoma brucei, isolated compounds, average of two determinations ± absolute deviation, read-out: Tbr (STIB900) IC50
[7] = isolated compounds, average of two determinations (a: one replicate), read-out: Cytotoxicity L6 Cells IC50
[8] = isolated compounds, average of two determinations (a: one replicate), read-out: Cytotoxicity L6 Cells IC50 (µg/mL)

Row | Compound | IC50 [1, 4] [µg/mL] | IC50 [1, 5] [µM] | IC50 [2] | IC50 [1, 6] [µM] | further results
1 | CC(=O)[C@H]1CC[C@H]2[C@@H]3CC=C4C[C@@H](N)CC[C@]4(C)[C@H]3CC[C@]12C [Compound 1, 3β-holaphyllamine] | 0.127 ± 0.088 | 0.4 ± 0.28 | 1.61 µg/mL and 5.1 µM | – | –
2 | CC(=O)N[C@H]1CC[C@@]2(C)C(=CC[C@H]3[C@@H]4CC[C@H](C(C)=O)[C@@]4(C)CC[C@@H]32)C1 [Compound 2, holaphyllamine acetamide] | 1.73 ± 0.47 | 4.83 ± 1.33 | 5.49 µg/mL and 15.4 µM | 4.8 to 14.9 | –
3 | CN[C@H]1CC[C@@]2(C)C(=CC[C@H]3[C@@H]4CC[C@H](C(C)=O)[C@@]4(C)CC[C@@H]32)C1 [Compound 3, 3β-N-methylholaphyllamine] | 0.025 ± 0.001 | 0.075 ± 0.004 | 0.829 µg/mL and 2.48 µM | 0.08 ± 0.01 | –
4 | CC(=O)[C@H]1CC[C@H]2[C@@H]3CC=C4C[C@H](N)CC[C@]4(C)[C@H]3CC[C@]12C [Compound 4, 3α-holaphyllamine] | 0.117 ± 0.05 | – | 5 µg/mL and 15.9 µM | 0.37 ± 0.159 | –
5 | CC(=O)[C@H]1CC[C@H]2[C@@H]3CC[C@H]4C[C@@H](N)CC[C@]4(C)[C@H]3CC[C@]12C [Compound 5, 3β-dihydroholaphyllamine] | 0.213 ± 0.008 | 0.672 ± 0.027 | – | 0.67 ± 0.03 | IC50 [2, 7]: 17.4 ± 1.36 µM; IC50 [2, 8]: 5.51 ± 0.43 µg/mL
6 | CC(=O)[C@H]1CC[C@H]2[C@@H]3CC[C@H]4C[C@H](N)CC[C@]4(C)[C@H]3CC[C@]12C [Compound 6, 3α-dihydroholaphyllamine] | 0.382 ± 0.238 | – | – | 1.21 ± 0.75 | IC50 [2, 7]: 17 ± 1.2 µM; IC50 [2, 8]: 5.38 ± 0.39 µg/mL
7 | C[C@H]1[C@H]2CC[C@H]3[C@@H]4CCC5=CC(=O)C=C[C@]5(C)[C@H]4CC[C@]23CN1C [Compound 7, holadienine] | 4.81 ± 0.68 | – | – | 14.9 ± 2.1 | –
8 | C[C@@H]1N=C[C@]23C[C@H](O)[C@H]4[C@@H](CCC5=CC(=O)C=C[C@@]54C)[C@@H]2CC[C@H]13 [Compound 8, holonamine] | 2.82 ± 0.76 | – | 21.1 µg/mL and 64.9 µM | 8.67 ± 2.33 | –
9 | C[C@H]1[C@H]2CC[C@H]3[C@@H]4C=CC5=CC(=O)CC[C@]5(C)[C@H]4CC[C@]23CN1C [Compound 9, cona-4,6-dienin-3-one] | 5.69 ± 0.07 | – | 41.9 µg/mL and 129 µM | 17.5 ± 0.2 | –
10 | C[C@H]1[C@H]2CC[C@H]3[C@@H]4C(=O)C=C5C=CCC[C@]5(C)[C@H]4CC[C@]23CN1C [Compound 10, cona-3,5-dienin-7-one] | 2.4 ± 0.3 | – | – | 7.37 ± 0.94 | IC50 [2, 7]: 41.7 ± 18.9 µM; IC50 [2, 8]: 13.6 ± 6.2 µg/mL
11 | C[C@@H]1NC[C@]23CC[C@H]4[C@@H](CC=C5C[C@@H](N(C)C)CC[C@@]54C)[C@@H]2CC[C@H]13 [Compound 11, conessimine] | 0.057 ± 0.028 | 0.167 ± 0.083 | 17.3 µg/mL and 50.4 µM | 0.17 ± 0.08 | –
12 | CN[C@H]1CC[C@@]2(C)C(=CC[C@H]3[C@@H]4CC[C@@H]5[C@H](C)N(C)C[C@@]54CC[C@@H]32)C1 [Compound 12, isoconessimine] | 0.056 ± 0.038 | 0.166 ± 0.112 | 9.38 µg/mL and 27.4 µM | 0.17 ± 0.11 | –
13 | C[C@H]1[C@H]2CC[C@H]3[C@@H]4CC=C5C[C@@H](N(C)C)CC[C@]5(C)[C@H]4CC[C@]23CN1C [Compound 13, conessine] | 0.149 ± 0.031 | 0.419 ± 0.087 | – | 0.42 ± 0.09 | IC50 ([2]; L6 rat skeletal myoblast cells, isolated compounds, average of two determinations (a: one replicate), read-out: Cytotoxicity L6 Cells IC50): 61.2 µM; IC50 ([2]; L6 rat skeletal myoblast cells, isolated compounds, average of two determinations (a: one replicate), read-out: Cytotoxicity L6 Cells IC50 (µg/mL)): 21.8 µg/mL
14 | CN[C@H]1CC[C@@]2(C)C(=CC[C@H]3[C@@H]4CC[C@@H]5[C@H](C)N(C)C[C@@]54[C@H](OC(=O)CC=C(C)C)C[C@@H]32)C1 [Compound 14, holarrhesine] | 0.054 ± 0.038 | 0.119 ± 0.084 | 6.51 µg/mL and 14.3 µM | 0.12 ± 0.08 | –
15 | CC(C)=CCC(=O)O[C@@H]1C[C@H]2[C@@H](CC=C3C[C@@H](N(C)C)CC[C@@]32C)[C@@H]2CC[C@@H]3[C@H](C)N(C)C[C@]312 [Compound 15, holarrhetine] | 0.777 ± 0.182 | – | 45.8 µg/mL and 97.7 µM | 1.66 ± 0.39 | –
16 | CN[C@H]1CC[C@@]2(C)C(=CC[C@H]3[C@@H]4CC[C@@H]5[C@H](C)N(C)C[C@@]54[C@H](O)C[C@@H]32)C1 [Compound 16, holarrheline] | 2.94 ± 0.37 | – | 64.8 µg/mL and 181 µM | 8.21 ± 1.03 | –
17 | C[C@H]1[C@H]2CC[C@H]3[C@@H]4CC=C5C[C@@H](N(C)C)CC[C@]5(C)[C@H]4C[C@@H](O)[C@]23CN1C [Compound 17, holarrhenine] | 7.78 ± 2.23 | – | 46.4 µg/mL and 125 µM | 20.9 ± 6 | –
18 | C[C@]12C=CC(=O)C=C1CC[C@@H]1[C@@H]2[C@@H](O)C[C@]2(C)C(=O)CC[C@@H]12 [Compound 18, kurchinin] | 3.64 ± 0.21 | – | – | – | –
19 | Nc1nc(N)nc(Nc2ccc([As]3SCC(CO)S3)cc2)n1 (stereo not shown) [melarsoprol, reference compound] | – | – | – | – | IC50 ([1]; Trypanosoma brucei, read-out: Tbr IC50): 0.002 ± 0.001 µg/mL
20 | COc1cc([C@@H]2c3cc4c(cc3[C@H](O)[C@H]3COC(=O)[C@H]23)OCO4)cc(OC)c1OC [podophyllotoxin, reference compound] | – | – | – | – | IC50 ([2]; Table 1, Leaves, L6 cells (c: one replicate), read-out: Cytotox. L6 IC50): 0.004 ± 0.001 µg/mL
21 | N^3-isopentenyl adenine [Compound 19] | – | – | – | – | Tbr (STIB900) IC50 ([1]; isolated compounds, average of two determinations ± absolute deviation): 5.03 ± 0.54 µg/mL; Cytotoxicity L6 Cells IC50 [3]: 61.30 ± 4.24 µg/mL; IC50 [3]: 302 ± 6.8 µM

Source: PMC6152089, “Steroid Alkaloids from Holarrhena africana with Strong Activity against Trypanosoma brucei rhodesiense” (Molecules : A Journal of Synthetic Chemistry and Natural …, 2017)
